Reference: patent US20040137514A1, “Use of antibodies against specific mhc-peptide complexes” (priority 2000, published 2004)

What was measured:
T cells of RA patients = conditions: cited from earlier work
BLCL = assay: FACS control: peptide binding to BLCL; design: species or system human; conditions: data not shown
Procedure: Briefly, 10^6 BLCL were incubated with 40 μg peptide in 500 μl DMEM/HAM's F12 or blank medium for 4 h at 37° C. After this incubation, the cells were washed with PBS, 2% FCS, 0.02% sodiumazide. Approximately 2×10^5 cells were incubated for 1 h, 4° C. with 130 μl MAb-containing hybridoma supernatant plus 20 μl PBS, 20% FCS, 0.02% sodiumazide. After washing the cells twice with PBS, 2% FCS, 0.02% sodiumazide, they were incubated for 1 h, 4° C. with 50 μl PBS, 20% FCS, 0.02% sodiumazide plus 10 μl Goat anti-mouseIg/FITC (Beckton & Dickinson). Subsequently, the cells were washed three times with PBS, 2% FCS, 0.02% sodiumazide and finally resuspended in 400 μl PBS, 2% p-formaldehyde. As a control for peptide binding, cells were incubated with biotinylated HC gp39263-275 and stained with streptavidin/PE (Beckton & Dickinson). As a control for HLA-DR expression, staining was performed with anti-HLA/DR, L243 (purified Ig from hybridoma ATCC HB 55). Stained cells were analyzed with the FACScan™ (Beckton & Dickinson). In all cases, forward and side scatter analysis was applied to eliminate dead cells and debris from further analysis.
These homozygous BLCL were loaded with HC gp-39263-275 and subsequently stained with ORG38948 12A. In a series of experiments, ORG38948 12A stains HC gp-39^263-275 in the context of both DRB1*0401 and DRB1*0407 (Table V). […]

[1] = DBA/1 mice, semi-therapeutic regime; cited from earlier work
[2] = intranasal administration prior to immunization; cited from earlier work
[3] = BALB/c mice; cited from earlier work

In the case of “326-338: peptide 326-338 of HC gp-39 (VGYDDQESVKSKV; HC gp-39 AA 326-338; listed as Homo sapiens)”, the “recognition by T cells of RA patients” value (T cells of RA patients) is given as “recognized”.
With RSFTLASSETG the “binding of peptide to the BLCL” value (BLCL) was “binds to the BLCL”.
In the case of “human cartilage glycoprotein-39 [HC gp-39]”, the “incidence and severity of collagen type II induced arthritis” value [1] is listed as “could reduce”, the DTH responses [2] is listed as “complete abrogation of DTH responses” and the disease development [2] is listed as “protection from or delayed onset of the disease”. For the same substance, the outcome of immunisation [3] was “development of a chronic, relapsing arthritis”.
